The test system of data set [1] is BVDV. Kind of data set: Antiviral assay: inhibition of BVDV-induced cytopathogenicity in MDBK cells. The class given is cell-based. Conditions: Bovine viral diarrhea virus isolates and strains, in Bos taurus, 72 h, read-out: BVDV EC50.
Data set [2] in a line: Cytotoxicity assay (MTT) in mock-infected MDBK cells. Type of data set: cell-based. Conditions: cattle (Bos taurus); concentration reducing viability of mock-infected MDBK cells by 50%, MTT method. In general terms: Tetrazolium assays rely on reduction of a dye to a coloured formazan, in cell work by metabolically active cells.
Data set [3] has as its system BVDV. Put plainly: Time of drug addition assay in BVDV-infected MDBK cells (plaque reduction titer). The class given is cell-based, Bovine Viral Diarrhoea Virus (BVDV). Conditions: along the viral replication cycle (between 2 and 14 h post-infection).
The subject of data set [4] is BVDV. Type of data set: cell-based, Bovine Viral Diarrhoea Virus (BVDV). Conditions: BVDV incubated with compound at 4 °C for 1 h, then used to infect cells.

Each structure is given as a SMILES string. Entries after “also recorded” stand apart in the source; their conditions may differ.

Turning to `COc1cc(C(=O)Nc2ccc(-c3nc4ccccc4[nH]3)cc2)cc(OC)c1OC` [Compound 1c, N-(4-(1H-Benzo[d]imidazol-2-yl)phenyl)-3,4,5-trimethoxybenzamide], the concentration giving a half-maximal response (EC50) with BVDV [1] is 2.2 µM. The compound further returned a CC50 in data set [2] of 28.5 µM.

In the case of `O=C(Nc1ccc(-c2nc3ccccc3[nH]2)cc1)c1ccc([N+](=O)[O-])cc1` [Compound 1d, N-(4-(1H-Benzo[d]imidazol-2-yl)phenyl)-4-nitrobenzamide], the melting point is more than 300 °C. In the data set on BVDV [1], the 50% effective concentration (EC50) is more than 100 µM. For the same compound, the CC50 in data set [2] is more than 100 µM.

`O=C(Nc1ccc(-c2nc3ccccc3[nH]2)cc1)c1ccc(Cl)cc1` [Compound 1e, N-(4-(1H-Benzo[d]imidazol-2-yl)phenyl)-4-chlorobenzamide] displayed a melting point of 170.5 °C. For the same compound, the 50% effective concentration (EC50) in the data set with BVDV [1] is more than 100 µM. Further, the CC50 in data set [2] is more than 100 µM.

Consider `COc1cc(C(=O)Nc2ccc(-c3nc4cc(Cl)ccc4[nH]3)cc2)cc(OC)c1OC` [Compound 2c, N-(4-(5-Chloro-1H-benzo[d]imidazol-2-yl)phenyl)-3,4,5-trimethoxybenzamide], for which the melting point was in the range of 286 to 287 °C. For the same compound, the “antiviral activity, time of drug addition” value in the data set on BVDV [3] was “consistent antiviral activity along the viral replication cycle; also recorded: detectable activity”. Moreover, the EC50 in the data set on BVDV [1] amounted to 0.09 µM. In data set [2], this compound came in with a half-maximal cytotoxic concentration (CC50) of 45 µM.

Take `O=C(Nc1ccc(-c2nc3cc(Cl)ccc3[nH]2)cc1)c1ccc([N+](=O)[O-])cc1` [Compound 2d, N-(4-(5-Chloro-1H-benzo[d]imidazol-2-yl)phenyl)-4-nitrobenzamide]: the melting point was more than 300 °C. In addition, the EC50 in the data set on BVDV [1] is 1.9 µM. In addition, the CC50 in data set [2] is more than 100 µM.

In turn, `O=C(Nc1ccc(-c2nc3cc(Cl)ccc3[nH]2)cc1)c1ccc(Cl)cc1` [Compound 2e, N-(4-(5-Chloro-1H-benzo[d]imidazol-2-yl)phenyl)-4-chlorobenzamide] came in with a melting point of more than 300 °C. Besides, the EC50 with BVDV [1] is more than 100 µM. In addition, the cytotoxic concentration (CC50) in data set [2] was more than 100 µM.

`COc1cc(C(=O)Nc2ccc(-c3nc4cc(Cl)c(Cl)cc4[nH]3)cc2)cc(OC)c1OC` [Compound 3c, N-(4-(5,6-Dichloro-1H-benzo[d]imidazol-2-yl)phenyl)-3,4,5-trimethoxybenzamide] displayed a melting point of 150.6 °C. Besides, the EC50 in the data set with BVDV [1] was found to be 1.3 µM. In data set [2], this compound came in with a CC50 of 28 µM.

For `O=C(Nc1ccc(-c2nc3cc(Cl)c(Cl)cc3[nH]2)cc1)c1ccc([N+](=O)[O-])cc1` [Compound 3d, N-(4-(5,6-Dichloro-1H-benzo[d]imidazol-2-yl)phenyl)-4-nitrobenzamide], the melting point is more than 300 °C. Further, the 50% effective concentration (EC50) in the data set on BVDV [1] was 53 µM. This compound showed a cytotoxic concentration (CC50) in data set [2] of more than 100 µM.

In turn, `O=C(Nc1ccc(-c2nc3cc(Cl)c(Cl)cc3[nH]2)cc1)c1ccc(Cl)cc1` [Compound 3e, N-(4-(5,6-Dichloro-1H-benzo[d]imidazol-2-yl)phenyl)-4-chlorobenzamide] gave a melting point of 161 to 162 °C. The EC50 with BVDV [1] was more than 60 µM. In data set [2], this compound came in with a 50% cytotoxic concentration (CC50) of 60 µM.

`COc1cc(C(=O)Nc2ccc(-c3nc4cc(F)ccc4[nH]3)cc2)cc(OC)c1OC` [Compound 4c, N-(4-(5-Fluoro-1H-benzo[d]imidazol-2-yl)phenyl)-3,4,5-trimethoxybenzamide] showed a melting point of 171.8 °C. The EC50 in the data set on BVDV [1] worked out at 41 µM. The compound further returned a 50% cytotoxic concentration (CC50) in data set [2] of more than 100 µM.

`O=C(Nc1ccc(-c2nc3cc(F)ccc3[nH]2)cc1)c1ccc([N+](=O)[O-])cc1` [Compound 4d, N-(4-(5-Fluoro-1H-benzo[d]imidazol-2-yl)phenyl)-4-nitrobenzamide] showed a melting point of more than 300 °C. Also, the EC50 with BVDV [1] came to 7.9 µM. The compound further showed a half-maximal cytotoxic concentration (CC50) in data set [2] of more than 100 µM.

For the compound `O=C(Nc1ccc(-c2nc3cc(F)ccc3[nH]2)cc1)c1ccc(Cl)cc1` [Compound 4e, N-(4-(5-Fluoro-1H-benzo[d]imidazol-2-yl)phenyl)-4-chlorobenzamide], the melting point was 138.6 °C. In addition, in the data set on BVDV [1], the 50% effective concentration (EC50) was more than 100 µM. For the same compound, in data set [2], the CC50 was more than 100 µM.

The compound `COc1cc(C(=O)Nc2ccc(-c3nc4cc(F)c(F)cc4[nH]3)cc2)cc(OC)c1OC` [Compound 5c, N-(4-(5,6-Difluoro-1H-benzo[d]imidazol-2-yl)phenyl)-3,4,5-trimethoxybenzamide] returned a melting point of 285 to 287 °C. Moreover, the 50% effective concentration (EC50) in the data set on BVDV [1] is 1.4 µM. The half-maximal cytotoxic concentration (CC50) in data set [2] is more than 100 µM.

`O=C(Nc1ccc(-c2nc3cc(F)c(F)cc3[nH]2)cc1)c1ccc([N+](=O)[O-])cc1` [Compound 5d, N-(4-(5,6-Difluoro-1H-benzo[d]imidazol-2-yl)phenyl)-4-nitrobenzamide] showed a melting point of more than 300 °C. Further, in the data set with BVDV [1], the concentration giving a half-maximal response (EC50) is 3.6 µM. For the same compound, the cytotoxic concentration (CC50) in data set [2] is more than 100 µM.

The compound `O=C(Nc1ccc(-c2nc3cc(F)c(F)cc3[nH]2)cc1)c1ccc(Cl)cc1` [Compound 5e, N-(4-(5,6-Difluoro-1H-benzo[d]imidazol-2-yl)phenyl)-4-chlorobenzamide] gave a melting point of more than 300 °C. Moreover, the EC50 in the data set with BVDV [1] is more than 100 µM. Besides, the CC50 in data set [2] is more than 100 µM.

`COc1cc(C(=O)Nc2ccc(-c3nc4cc(C)ccc4[nH]3)cc2)cc(OC)c1OC` [Compound 6c, N-(4-(5-Methyl-1H-benzo[d]imidazol-2-yl)phenyl)-3,4,5-trimethoxybenzamide]: in the data set with BVDV [1], the EC50 turned out to be 0.23 µM. The CC50 in data set [2] was more than 100 µM. The virucidal activity entry in the data set with BVDV [4] is “almost comparable to the untreated but infected ones”.

Regarding `Cc1ccc2nc(-c3ccc(NC(=O)c4ccc([N+](=O)[O-])cc4)cc3)[nH]c2c1` [Compound 6d, N-(4-(5-Methyl-1H-benzo[d]imidazol-2-yl)phenyl)-4-nitrobenzamide], the EC50 with BVDV [1] is more than 100 µM. In addition, the half-maximal cytotoxic concentration (CC50) in data set [2] was more than 100 µM.

On to `Cc1ccc2[nH]c(-c3ccc(NC(=O)c4ccc(Cl)cc4)cc3)nc2c1` [Compound 6e, N-(4-(5-Methyl-1H-benzo[d]imidazol-2-yl)phenyl)-4-chlorobenzamide], for which the melting point was more than 300 °C. Further, the EC50 in the data set on BVDV [1] was more than 100 µM. In data set [2], this compound returned a CC50 of more than 100 µM.

For `COc1cc(C(=O)Nc2ccc(-c3nc4cc(C)c(C)cc4[nH]3)cc2)cc(OC)c1OC` [Compound 7c, N-(4-(5,6-Dimethyl-1H-benzo[d]imidazol-2-yl)phenyl)-3,4,5-trimethoxybenzamide], the melting point lay in the range of 272 to 274 °C. Besides, the EC50 in the data set with BVDV [1] was 0.3 µM. In data set [2], this compound came in with a CC50 of more than 100 µM. Further, in the data set with BVDV [4], the virucidal activity entry is “almost comparable to the untreated but infected ones”.

`Cc1cc2nc(-c3ccc(NC(=O)c4ccc([N+](=O)[O-])cc4)cc3)[nH]c2cc1C` [Compound 7d, N-(4-(5,6-Dimethyl-1H-benzo[d]imidazol-2-yl)phenyl)-4-nitrobenzamide] had a melting point of more than 300 °C. Also, the EC50 in the data set with BVDV [1] was more than 100 µM. For the same compound, the half-maximal cytotoxic concentration (CC50) in data set [2] is more than 100 µM.

The compound `Cc1cc2nc(-c3ccc(NC(=O)c4ccc(Cl)cc4)cc3)[nH]c2cc1C` [Compound 7e, N-(4-(5,6-Dimethyl-1H-benzo[d]imidazol-2-yl)phenyl)-4-chlorobenzamide] gave a melting point of more than 300 °C. Moreover, the EC50 in the data set with BVDV [1] was more than 100 µM. The same compound came in with a CC50 in data set [2] of more than 100 µM.

As to `C[C@@]1(O)[C@H](O)[C@@H](CO)O[C@H]1n1cnc2c(=O)[nH]c(N)nc21` [NM 108, 2′-C-methylguanosine, reference compound], the EC50 with BVDV [1] was found to be 1.5 µM. The half-maximal cytotoxic concentration (CC50) in data set [2] was more than 100 µM.

Consider `NC(=O)c1ncn([C@@H]2O[C@H](CO)[C@@H](O)[C@H]2O)n1` [Ribavirin, ribavirin, reference compound], for which the half-maximal effective concentration (EC50) in the data set with BVDV [1] turned out to be 18 µM. This compound had a CC50 in data set [2] of more than 100 µM.

For orientation: EC50 means the midpoint of the concentration-response curve. One may read the CC50 as the concentration that lowers cell viability or growth by half. A high value points to lower toxicity to the cells. Usually melting point stands for the temperature of the solid-liquid transition.

(Values after paper PMC9231222 (Viruses, 2022).)
